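Briefly, cells in 96-well plates were exposed to five compound concentrations for 48 h, and endpoints were estimated by linear interpolation. GI50 = concentration required for 50% inhibition of growth. At the TGI there is no net growth.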 *1 amine or outer side, *2 acyl side, *3 side chain or, on linkers, in order; H or OH if unused. Where a SMILES comes first, the peptide text is derived from it. [ ]: non-standard residue; d: D form. The star is where a group is joined. X11 = C/C=C/CC(C)C(O)[C@H](N[*:1])C(=O)[*:2]; Leu(ol) = CC(C)C[C@H](N)CO; Iva = CC[C@](C)(N)C(=O)O; Octanoyl = CCCCCCCC(=O)*; Aib = CC(C)(N)C(=O)O
Legend:
Assay in all cases: growth of human tumour cells (NCI), 48 h
SF-268 CNS = tested on: SF-268 CNS
EKVX NSCLC = tested on: EKVX NSCLC
IGROV1 ovarian = tested on: IGROV1 ovarian
SR leukemia = tested on: SR leukemia
SF-539 CNS = tested on: SF-539 CNS
MCF7 breast = tested on: MCF7 breast
UACC-257 melanoma = tested on: UACC-257 melanoma
MDA-MB-435 = tested on: MDA-MB-435
SK-OV-3 ovarian = tested on: SK-OV-3 ovarian
MOLT-4 leukemia = tested on: MOLT-4 leukemia
KM12 colon = tested on: KM12 colon
RPMI-8226 leukemia = tested on: RPMI-8226 leukemia
ACHN renal = tested on: ACHN renal
SK-MEL-2 melanoma = tested on: SK-MEL-2 melanoma
U251 CNS = tested on: U251 CNS
HCT-15 colon = tested on: HCT-15 colon
HCT-116 colon = tested on: HCT-116 colon
NCI-H522 lung = tested on: NCI-H522 lung
NCI-H460 lung = tested on: NCI-H460 lung
TK-10 renal = tested on: TK-10 renal
K-562 leukemia = tested on: K-562 leukemia
HOP-62 NSCLC = tested on: HOP-62 NSCLC
HL-60(TB) leukemia = tested on: HL-60(TB) leukemia
SNB-75 CNS = tested on: SNB-75 CNS
DU-145 prostate = tested on: DU-145 prostate
SK-MEL-28 melanoma = tested on: SK-MEL-28 melanoma
MDA-MB-231 breast = tested on: MDA-MB-231 breast
CAKI-1 renal = tested on: CAKI-1 renal
M14 melanoma = tested on: M14 melanoma
HT29 colon = tested on: HT29 colon
786-0 renal = tested on: 786-0 renal
HS 578T breast = tested on: HS 578T breast
OVCAR-8 ovarian = tested on: OVCAR-8 ovarian
UACC-62 melanoma = tested on: UACC-62 melanoma
SK-MEL-5 melanoma = tested on: SK-MEL-5 melanoma
OVCAR-5 ovarian = tested on: OVCAR-5 ovarian
A549 NSCLC = tested on: A549 NSCLC
COLO 205 colon = tested on: COLO 205 colon
OVCAR-3 ovarian = tested on: OVCAR-3 ovarian
SNB-19 CNS = tested on: SNB-19 CNS
A498 renal = tested on: A498 renal
HCC-2998 colon = tested on: HCC-2998 colon
BT-549 breast = tested on: BT-549 breast
SW-620 colon = tested on: SW-620 colon
MALME-3M melanoma = tested on: MALME-3M melanoma
OVCAR-4 ovarian = tested on: OVCAR-4 ovarian
CCRF-CEM leukemia = tested on: CCRF-CEM leukemia
LOX IMVI melanoma = tested on: LOX IMVI melanoma
NCI-H226 lung = tested on: NCI-H226 lung
T-47D breast = tested on: T-47D breast
SF-295 CNS = tested on: SF-295 CNS
PC-3 prostate = tested on: PC-3 prostate
UO-31 renal = tested on: UO-31 renal
RXF 393 renal = tested on: RXF 393 renal
NCI/ADR-RES ovarian = tested on: NCI/ADR-RES ovarian
SN12C renal = tested on: SN12C renal

How did the GI50 (SF-268 CNS) turn out when `C/C=C/CC(C)C(O)[C@H](NC(=O)[C@@H]1CCCN1C(=O)C(C)(C)NC(=O)CCCCCCC)C(=O)N[C@@](C)(CC)C(=O)N[C@@H](CCC(N)=O)C(=O)N[C@H](CCC(N)=O)C(=O)NC(C)(C)C(=O)NC(C)(C)C(=O)N[C@@H](CCC(N)=O)C(=O)N[C@H](CC(C)C)C(=O)N[C@H](CO)CC(C)C` (stereo partly drawn) (Octanoyl-[Aib]P[X11][Iva]Q[dQ][Aib][Aib]Q[dL][Leu(ol)]) was run?
The GI50 was 2.96 µM.

And the TGI (SF-268 CNS)?
Its TGI is 10.2 µM.

What about the GI50 (EKVX NSCLC) of the same compound?
The GI50 was 2.83 µM.

And the TGI (EKVX NSCLC)?
The TGI was 9.74 µM.

And the GI50 (IGROV1 ovarian)?
The GI50 was 6.83 µM.

What about the TGI (IGROV1 ovarian) of the same compound?
The TGI was 20.3 µM.

What about the GI50 (SR leukemia) of the same compound?
The GI50 was 1.79 µM.

And the TGI (SR leukemia)?
Its TGI is 3.64 µM.

What about the GI50 (SF-539 CNS) of the same compound?
The GI50 was 1.95 µM.

What about the TGI (SF-539 CNS) of the same compound?
Its TGI is 4.14 µM.

And the GI50 (MCF7 breast)?
The GI50 was 2.95 µM.

What about the TGI (MCF7 breast) of the same compound?
The TGI was 10.7 µM.

And the GI50 (UACC-257 melanoma)?
Its GI50 is 1.8 µM.

What about the TGI (UACC-257 melanoma) of the same compound?
The TGI was 3.75 µM.

What about the GI50 (MDA-MB-435) of the same compound?
The GI50 was 1.93 µM.

What about the TGI (MDA-MB-435) of the same compound?
The TGI was 3.83 µM.

What about the GI50 (SK-OV-3 ovarian) of the same compound?
The GI50 was 10.7 µM.

What about the TGI (SK-OV-3 ovarian) of the same compound?
Its TGI is 23.9 µM.

And the GI50 (MOLT-4 leukemia)?
Its GI50 is 2.43 µM.

What about the TGI (MOLT-4 leukemia) of the same compound?
Its TGI is 5.62 µM.

And the GI50 (KM12 colon)?
The GI50 was 2.16 µM.

What about the TGI (KM12 colon) of the same compound?
Its TGI is 4.77 µM.

And the GI50 (RPMI-8226 leukemia)?
Its GI50 is 2.38 µM.

What about the TGI (RPMI-8226 leukemia) of the same compound?
The TGI was 5.28 µM.

What about the GI50 (ACHN renal) of the same compound?
The GI50 was 7.45 µM.

And the TGI (ACHN renal)?
The TGI was 19.9 µM.

What about the GI50 (SK-MEL-2 melanoma) of the same compound?
Its GI50 is 6.7 µM.

And the TGI (SK-MEL-2 melanoma)?
The TGI was 19.4 µM.

And the GI50 (U251 CNS)?
The GI50 was 1.74 µM.

What about the TGI (U251 CNS) of the same compound?
The TGI was 3.2 µM.

What about the GI50 (HCT-15 colon) of the same compound?
The GI50 was 5.2 µM.

And the TGI (HCT-15 colon)?
The TGI was 18.2 µM.

What about the GI50 (HCT-116 colon) of the same compound?
Its GI50 is 4.11 µM.

And the TGI (HCT-116 colon)?
Its TGI is 16 µM.

And the GI50 (NCI-H522 lung)?
The GI50 was 2.27 µM.

What about the TGI (NCI-H522 lung) of the same compound?
Its TGI is 6.34 µM.

What about the GI50 (NCI-H460 lung) of the same compound?
The GI50 was 3.89 µM.

And the TGI (NCI-H460 lung)?
The TGI was 13.1 µM.

What about the GI50 (TK-10 renal) of the same compound?
The GI50 was 4.54 µM.

What about the TGI (TK-10 renal) of the same compound?
The TGI was 15 µM.

And the GI50 (K-562 leukemia)?
Its GI50 is 1.85 µM.

And the TGI (K-562 leukemia)?
Its TGI is 3.52 µM.

And the GI50 (HOP-62 NSCLC)?
Its GI50 is 3.16 µM.

And the TGI (HOP-62 NSCLC)?
Its TGI is 11.2 µM.

What about the GI50 (HL-60(TB) leukemia) of the same compound?
The GI50 was 1.74 µM.

What about the TGI (HL-60(TB) leukemia) of the same compound?
The TGI was 3.86 µM.

What about the GI50 (SNB-75 CNS) of the same compound?
The GI50 was 1.42 µM.

What about the TGI (SNB-75 CNS) of the same compound?
The TGI was 3.24 µM.

And the GI50 (DU-145 prostate)?
The GI50 was 2.15 µM.

What about the TGI (DU-145 prostate) of the same compound?
The TGI was 4.61 µM.

And the GI50 (SK-MEL-28 melanoma)?
Its GI50 is 1.81 µM.

And the TGI (SK-MEL-28 melanoma)?
The TGI was 3.38 µM.

What about the GI50 (MDA-MB-231 breast) of the same compound?
Its GI50 is 3.16 µM.

What about the TGI (MDA-MB-231 breast) of the same compound?
Its TGI is 10.1 µM.

What about the GI50 (CAKI-1 renal) of the same compound?
The GI50 was 4.89 µM.

What about the TGI (CAKI-1 renal) of the same compound?
The TGI was 18.4 µM.

And the GI50 (M14 melanoma)?
Its GI50 is 2.66 µM.

What about the TGI (M14 melanoma) of the same compound?
The TGI was 7.2 µM.

And the GI50 (HT29 colon)?
Its GI50 is 7.35 µM.

And the TGI (HT29 colon)?
Its TGI is 20.6 µM.

And the GI50 (786-0 renal)?
The GI50 was 2.71 µM.

And the TGI (786-0 renal)?
Its TGI is 7.6 µM.

What about the GI50 (HS 578T breast) of the same compound?
Its GI50 is 2.45 µM.

And the TGI (HS 578T breast)?
The TGI was 6.8 µM.

What about the GI50 (OVCAR-8 ovarian) of the same compound?
Its GI50 is 3.16 µM.

And the TGI (OVCAR-8 ovarian)?
The TGI was 12.3 µM.

And the GI50 (UACC-62 melanoma)?
The GI50 was 3.02 µM.

What about the TGI (UACC-62 melanoma) of the same compound?
The TGI was 11.2 µM.

What about the GI50 (SK-MEL-5 melanoma) of the same compound?
Its GI50 is 1.85 µM.

And the TGI (SK-MEL-5 melanoma)?
The TGI was 3.52 µM.

What about the GI50 (OVCAR-5 ovarian) of the same compound?
Its GI50 is 5.64 µM.

And the TGI (OVCAR-5 ovarian)?
The TGI was 18.7 µM.

What about the GI50 (A549 NSCLC) of the same compound?
The GI50 was 5.12 µM.

What about the TGI (A549 NSCLC) of the same compound?
Its TGI is 21 µM.

And the GI50 (COLO 205 colon)?
The GI50 was 2.03 µM.

And the TGI (COLO 205 colon)?
Its TGI is 4.04 µM.

What about the GI50 (OVCAR-3 ovarian) of the same compound?
The GI50 was 10.6 µM.

And the TGI (OVCAR-3 ovarian)?
Its TGI is 24 µM.

What about the GI50 (SNB-19 CNS) of the same compound?
The GI50 was 3.95 µM.

And the TGI (SNB-19 CNS)?
The TGI was 14.6 µM.

And the GI50 (A498 renal)?
The GI50 was 2.74 µM.

And the TGI (A498 renal)?
The TGI was 7.25 µM.

And the GI50 (HCC-2998 colon)?
The GI50 was 3 µM.

What about the TGI (HCC-2998 colon) of the same compound?
Its TGI is 10.1 µM.

And the GI50 (BT-549 breast)?
Its GI50 is 2.01 µM.

What about the TGI (BT-549 breast) of the same compound?
Its TGI is 3.63 µM.

What about the GI50 (SW-620 colon) of the same compound?
The GI50 was 6.91 µM.

What about the TGI (SW-620 colon) of the same compound?
The TGI was 20.2 µM.

What about the GI50 (MALME-3M melanoma) of the same compound?
The GI50 was 1.96 µM.

And the TGI (MALME-3M melanoma)?
The TGI was 4.68 µM.

What about the GI50 (OVCAR-4 ovarian) of the same compound?
The GI50 was 10.4 µM.

And the TGI (OVCAR-4 ovarian)?
Its TGI is 24.1 µM.

And the GI50 (CCRF-CEM leukemia)?
Its GI50 is 2.35 µM.

And the TGI (CCRF-CEM leukemia)?
Its TGI is 5.63 µM.

And the GI50 (LOX IMVI melanoma)?
Its GI50 is 3.56 µM.

And the TGI (LOX IMVI melanoma)?
The TGI was 13.6 µM.

And the GI50 (NCI-H226 lung)?
The GI50 was 2.25 µM.

And the TGI (NCI-H226 lung)?
Its TGI is 5.92 µM.

And the GI50 (T-47D breast)?
The GI50 was 4.34 µM.

What about the TGI (T-47D breast) of the same compound?
The TGI was 20.3 µM.

And the GI50 (SF-295 CNS)?
Its GI50 is 2.27 µM.

What about the TGI (SF-295 CNS) of the same compound?
Its TGI is 5.61 µM.

And the GI50 (PC-3 prostate)?
The GI50 was 2.34 µM.

What about the TGI (PC-3 prostate) of the same compound?
Its TGI is 6.75 µM.

What about the GI50 (UO-31 renal) of the same compound?
Its GI50 is 3.1 µM.

And the TGI (UO-31 renal)?
The TGI was 14.9 µM.

And the GI50 (RXF 393 renal)?
The GI50 was 1.79 µM.

What about the TGI (RXF 393 renal) of the same compound?
The TGI was 3.37 µM.

What about the GI50 (NCI/ADR-RES ovarian) of the same compound?
Its GI50 is 8.82 µM.

What about the TGI (NCI/ADR-RES ovarian) of the same compound?
Its TGI is 22.4 µM.

What about the GI50 (SN12C renal) of the same compound?
Its GI50 is 3.12 µM.

And the TGI (SN12C renal)?
Its TGI is 11.6 µM.

Reference: PubChem BioAssay (NCI)
